The target of one assay is TEAD1 (Homo sapiens (Human), UniProt P28347). Description: TR-FRET lipid pocket probe competition assay (Lipid HTRF), TEAD1.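 Note: His-tagged TEAD1 with biotinylated probe, detected via Europium anti-His and XL665 streptavidin, probe displacement lowers TR-FRET signal, IC50 from four-parameter nonlinear fit.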 The settings on record: 4 hours pre-incubation; read-out: Lipid HTRF TEAD1 IC50. In kind it is binding.
A further assay concerns the target TEAD2 (Homo sapiens (Human), UniProt Q15562).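 Note: TR-FRET competition assay with His-tagged TEAD protein and a biotinylated lipid pocket probe, compound pre-incubated 30 min or 4 h at room temperature, displacement lowers signal.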
A further assay concerns the target TEAD4 (Homo sapiens (Human), UniProt Q15561). The assay can be described thus: TR-FRET lipid pocket probe competition assay (Lipid HTRF), TEAD4.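 Note: His-tagged TEAD4 with biotinylated lipid-pocket probe, read by Europium anti-His and XL665 streptavidin, where probe displacement lowers the TR-FRET signal, IC50 from a four-parameter fit.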 In kind it is binding. The settings on record: 4 hours pre-incubation; read-out: Lipid HTRF TEAD4 IC50.
A further assay concerns the target TEAD3 (Homo sapiens (Human), UniProt Q99594). Description: TR-FRET lipid pocket probe competition assay (Lipid HTRF), TEAD3. The class given is binding. The settings on record: 4 hours pre-incubation; read-out: Lipid HTRF TEAD3 IC50.

TEAD4, sequence (Q15561 whole entry, species assumed): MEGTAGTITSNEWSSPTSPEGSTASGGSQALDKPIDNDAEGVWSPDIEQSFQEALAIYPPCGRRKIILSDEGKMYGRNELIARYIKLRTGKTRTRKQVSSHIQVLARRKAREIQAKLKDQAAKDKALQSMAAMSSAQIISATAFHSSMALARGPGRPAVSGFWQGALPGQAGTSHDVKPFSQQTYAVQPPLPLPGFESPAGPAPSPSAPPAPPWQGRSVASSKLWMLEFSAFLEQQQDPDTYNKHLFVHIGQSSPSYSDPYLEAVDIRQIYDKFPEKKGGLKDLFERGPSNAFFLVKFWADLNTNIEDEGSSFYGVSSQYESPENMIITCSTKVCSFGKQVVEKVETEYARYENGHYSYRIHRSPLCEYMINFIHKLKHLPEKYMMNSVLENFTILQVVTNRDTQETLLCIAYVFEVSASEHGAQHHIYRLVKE
TEAD1, sequence (P28347 whole entry, species assumed): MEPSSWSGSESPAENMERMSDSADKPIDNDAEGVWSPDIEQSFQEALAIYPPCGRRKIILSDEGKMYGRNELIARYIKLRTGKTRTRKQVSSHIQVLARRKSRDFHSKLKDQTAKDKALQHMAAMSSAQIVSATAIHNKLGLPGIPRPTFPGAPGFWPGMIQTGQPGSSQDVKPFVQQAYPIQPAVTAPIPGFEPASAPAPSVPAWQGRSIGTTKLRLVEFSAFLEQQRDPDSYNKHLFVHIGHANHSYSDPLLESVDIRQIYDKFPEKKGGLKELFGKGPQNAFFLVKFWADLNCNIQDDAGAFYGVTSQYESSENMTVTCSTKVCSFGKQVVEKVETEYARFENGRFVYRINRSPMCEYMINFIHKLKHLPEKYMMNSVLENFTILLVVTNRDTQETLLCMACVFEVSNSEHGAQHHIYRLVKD
TEAD2, sequence (Q15562 whole entry, species assumed): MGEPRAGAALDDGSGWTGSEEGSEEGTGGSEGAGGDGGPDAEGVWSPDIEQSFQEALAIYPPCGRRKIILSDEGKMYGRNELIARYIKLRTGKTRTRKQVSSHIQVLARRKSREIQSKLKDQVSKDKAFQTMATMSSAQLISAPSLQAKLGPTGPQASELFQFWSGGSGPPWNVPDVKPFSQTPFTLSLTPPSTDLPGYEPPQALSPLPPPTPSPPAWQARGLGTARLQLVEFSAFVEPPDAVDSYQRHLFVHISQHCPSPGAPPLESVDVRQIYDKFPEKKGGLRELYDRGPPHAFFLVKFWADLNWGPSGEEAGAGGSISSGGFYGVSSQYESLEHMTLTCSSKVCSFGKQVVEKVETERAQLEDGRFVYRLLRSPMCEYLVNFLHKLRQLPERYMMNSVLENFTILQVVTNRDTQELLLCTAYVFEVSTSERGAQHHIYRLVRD
TEAD3, sequence (Q99594 whole entry, species assumed): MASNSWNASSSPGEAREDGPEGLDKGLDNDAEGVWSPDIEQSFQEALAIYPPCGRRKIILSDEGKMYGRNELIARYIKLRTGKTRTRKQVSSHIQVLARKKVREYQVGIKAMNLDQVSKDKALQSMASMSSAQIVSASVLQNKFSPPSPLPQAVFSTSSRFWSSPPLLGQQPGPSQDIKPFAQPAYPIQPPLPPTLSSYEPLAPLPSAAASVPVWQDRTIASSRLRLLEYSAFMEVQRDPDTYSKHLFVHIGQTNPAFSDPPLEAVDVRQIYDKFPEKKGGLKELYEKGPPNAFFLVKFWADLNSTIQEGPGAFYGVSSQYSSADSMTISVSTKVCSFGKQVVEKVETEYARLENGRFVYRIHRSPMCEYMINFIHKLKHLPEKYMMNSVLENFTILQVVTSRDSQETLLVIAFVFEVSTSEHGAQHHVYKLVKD
Experimental for TEAD2: His-tagged TEAD proteins are pre-incubated with TEAD project compounds for 30 minutes or 4 hours at room temperature. Biotinylated lipid pocket probes are then added to the TEAD/Compound mixture and incubated for 60 minutes at room temperature. The lipid pocket probe competes with the test compound for the TEAD lipid pocket until equilibrium is reached. After 60 minutes, Europium labelled anti-His (Perkin Elmer #AD0110) and XL665 labelled streptavidin (CIS Bio 610SAXAC) are added to the TEAD/test compound/lipid pocket mixture and incubated for 30 minutes or 4 hours. TR-FRET values are then measured using an EnVision multi-label plate reader (Perkin Elmer Cat #2104-0010A.) If the lipid pocket probe binds to TEAD as expected, a TR-FRET signal results from the proximity of anti-His Eu and XL665. If a TEAD lipid pocket binder such as binds and displaces the lipid pocket probe, the disruption of the TEAD:probe interaction results in a decrease in TR-FRET signal. The potency of compounds as TEAD lipid pocket binders is determined by IC50 value generated using a non-linear 4 parameter curve fit.
Experimental for TEAD3: (§1) His-tagged TEAD proteins are pre-incubated with TEAD project compounds for 30 minutes or 4 hours at room temperature. Biotinylated lipid pocket probes are then added to the TEAD/Compound mixture and incubated for 60 minutes at room temperature. The lipid pocket probe competes with the test compound for the TEAD lipid pocket until equilibrium is reached. After 60 minutes, Europium labelled anti-His (Perkin Elmer #AD0110) and XL665 labelled streptavidin (CIS Bio 610SAXAC) are added to the TEAD/test compound/lipid pocket mixture and incubated for 30 minutes or 4 hours. […] If a TEAD lipid pocket binder such as binds and displaces the lipid pocket probe, the disruption of the TEAD:probe interaction results in a decrease in TR-FRET signal. The potency of compounds as TEAD lipid pocket binders is determined by IC50 value generated using a non-linear 4 parameter curve fit.
Experimental for TEAD4: as §1

Turning to `C=CC(=O)NCc1nn(-c2ccc(OC(F)(F)F)cc2)c2nccc(N3CC(C)(O)C3)c12` [Compound 74, N-((4-(3-hydroxy-3-methylazetidin-1-yl)-1-(4-(trifluoromethoxy)phenyl)-1H-pyrazolo[3,4-b]pyridin-3-yl)methyl)acrylamide], the concentration for half-maximal inhibition (IC50) on TEAD1 was found to be 32 nM; against TEAD2, 140 nM; on TEAD4 it was 4.8 nM; at TEAD3, 4100 nM.

Consider `C=C(F)C(=O)N1CC(c2nn(-c3ccc(OC(F)(F)F)cc3)c3nccc(N4CC(O)(CO)C4)c23)C1` [Compound 75, 2-Fluoro-1-(3-(4-(3-hydroxy-3-(hydroxymethyl)azetidin-1-yl)-1-(4-(trifluoromethoxy)phenyl)-1H-pyrazolo[3,4-b]pyridin-3-yl)azetidin-1-yl)prop-2-en-1-one], for which the concentration for half-maximal inhibition (IC50) came out at 45 nM on TEAD1, 19 nM on TEAD2, 5.2 nM at TEAD4 and 1100 nM at TEAD3.

Regarding `C=C(F)C(=O)N1CC(c2nn(-c3ccc(OC(F)(F)F)cc3)c3ccnc(N4CC(O)C4)c23)C1` [Compound 78, 2-fluoro-1-(3-(4-(3-hydroxyazetidin-1-yl)-1-(4-(trifluoromethoxy)phenyl)-1H-pyrazolo[4,3-c]pyridin-3-yl)azetidin-1-yl)prop-2-en-1-one], the IC50 on TEAD1 was 180 nM; against TEAD2 it was 2800 nM; on TEAD4 it was 150 nM; at TEAD3 it was 13000 nM.

In the case of `N#Cc1ccnc2c1c(C1CN(C(=O)/C=C/CO)C1)nn2-c1ccc(OC(F)(F)F)cc1` [Compound 79], the IC50 at TEAD1 is 19 nM; against TEAD2, 60 nM; at TEAD4, 6.8 nM; on TEAD3 it was 20 nM.

For `C=C(F)C(=O)N1CC(c2nn(-c3ccc(OC(F)(F)F)cc3)c3nccc(C#N)c23)C1` [Compound 80, 3-(1-(2-fluoroacryloyl)azetidin-3-yl)-1-(4-(trifluoromethoxy)phenyl)-1H-pyrazolo[3,4-b]pyridine-4-carbonitrile], the IC50 stood at 18 nM at TEAD1, 68 nM at TEAD2, 16 nM at TEAD4 and 29 nM at TEAD3.

For `C=C(F)C(=O)N1CC(c2nn(-c3ccc(OC(F)(F)F)cc3)c3nccc(N4CC(O)C4)c23)C1` [Compound 81, 2-Fluoro-1-(3-(4-(3-hydroxyazetidin-1-yl)-1-(4-(trifluoromethoxy)phenyl)-1H-pyrazolo[3,4-b]pyridin-3-yl)azetidin-1-yl)prop-2-en-1-one], the 50% inhibitory concentration (IC50) worked out at 32 nM at TEAD1, 24 nM on TEAD2, 11 nM at TEAD4 and 240 nM at TEAD3.

Turning to `C=C(F)C(=O)N1CC(c2nn(-c3ccc(OC(F)(F)F)cc3)c3nccc(N4CC[C@H](O)C4=O)c23)C1` [Compound 82, (S)-1-(3-(1-(2-fluoroacryloyl)azetidin-3-yl)-1-(4-(trifluoromethoxy)phenyl)-1H-pyrazolo[3,4-b]pyridin-4-yl)-3-hydroxypyrrolidin-2-one], the IC50 amounted to 31 nM at TEAD1, 390 nM at TEAD2, 4.8 nM on TEAD4 and 270 nM at TEAD3.

With `C=CC(=O)NCc1nn(-c2ccc(OC(F)(F)F)cc2)c2nccc(N3CC(F)C3)c12` [Compound 84, N-((4-(3-Fluoroazetidin-1-yl)-1-(4-(trifluoromethoxy)phenyl)-1H-pyrazolo[3,4-b]pyridin-3-yl)methyl)acrylamide], the IC50 worked out at 23 nM at TEAD1, 89 nM against TEAD2, 6.3 nM on TEAD4 and 50000 nM on TEAD3.

Regarding `C=CC(=O)NCc1nn(-c2ccc(OC(F)(F)F)cc2)c2nccc(N[C@H]3C[C@H](O)C3)c12` [Compound 85, N-((4-((3-hydroxycyclobutyl)amino)-1-(4-(trifluoromethoxy)phenyl)-1H-pyrazolo[3,4-b]pyridin-3-yl)methyl)acrylamide], the IC50 on TEAD1 stood at 140 nM; against TEAD2 it was 480 nM; at TEAD4 it was 170 nM; at TEAD3, 15000 nM.

In the case of `C=CC(=O)NCc1nn(-c2ccc(S(F)(F)(F)(F)F)cc2)c2nccc(CO)c12` [Compound 87, N-((4-(Hydroxymethyl)-1-(4-(pentafluoro-λ^6-sulfanyl)phenyl)-1H-pyrazolo[3,4-b]pyridin-3-yl)methyl)acrylamide], the IC50 was found to be 23 nM at TEAD1, 190 nM on TEAD2, 33 nM at TEAD4 and 520 nM on TEAD3.

`C=CC(=O)NCc1nn(-c2ccc(OC(F)(F)F)cc2)c2nccc(N3CCC(O)CC3)c12` [Compound 91, N-((4-(4-hydroxypiperidin-1-yl)-1-(4-(trifluoromethoxy)phenyl)-1H-pyrazolo[3,4-b]pyridin-3-yl)methyl)acrylamide]: the IC50 is 44 nM at TEAD1, 66 nM against TEAD2, 28.5 nM at TEAD4 and 41000 nM on TEAD3.

For `C=CC(=O)NCc1nn(-c2ccc(OC(F)(F)F)cc2)c2nccc(N3CC(N)C3)c12` [Compound 92, N-((4-(3-aminoazetidin-1-yl)-1-(4-(trifluoromethoxy)phenyl)-1H-pyrazolo[3,4-b]pyridin-3-yl)methyl)acrylamide], the 50% inhibitory concentration (IC50) is 110 nM at TEAD1, 780 nM at TEAD2, 52 nM at TEAD4 and 13000 nM on TEAD3.

For `C=CC(=O)N(C)Cc1nn(-c2ccc(OC(F)(F)F)cc2)c2nccc([C@@H](O)CO)c12` [Compound 93, (R)-N-((4-(1,2-dihydroxyethyl)-1-(4-(trifluoromethoxy)phenyl)-1H-pyrazolo[3,4-b]pyridin-3-yl)methyl)-N-methylacrylamide], the IC50 was 170 nM at TEAD1, 710 nM on TEAD2, 22 nM at TEAD4 and 570 nM on TEAD3.

Take `Cc1ccnc2c1c(C1CN(C(=O)/C=C/CO)C1)nn2-c1ccc(OC(F)(F)F)cc1` [Compound 96, (E)-4-Hydroxy-1-(3-(4-methyl-1-(4-(trifluoromethoxy)phenyl)-1H-pyrazolo[3,4-b]pyridin-3-yl)azetidin-1-yl)but-2-en-1-one]: the IC50 on TEAD1 amounted to 10 nM; on TEAD2, 30 nM; at TEAD4 it was 3.7 nM; at TEAD3, 38 nM.

With `C[C@H](O)/C=C/C(=O)N1CC(c2nn(-c3ccc(OC(F)(F)F)cc3)c3nccc(CO)c23)C1` [Compound 97, (S,E)-4-hydroxy-1-(3-(4-(hydroxymethyl)-1-(4-(trifluoromethoxy)phenyl)-1H-pyrazolo[3,4-b]pyridin-3-yl)azetidin-1-yl)pent-2-en-1-one], the IC50 at TEAD1 turned out to be 78 nM; on TEAD2 it was 520 nM; on TEAD4, 58 nM; at TEAD3, 570 nM.

On to `O=C(/C=C\Cl)NCc1nn(-c2ccc(OC(F)(F)F)cc2)c2nccc(CO)c12` [Compound 99, (Z)-3-Chloro-N-((4-(hydroxymethyl)-1-(4-(trifluoromethoxy)phenyl)-1H-pyrazolo[3,4-b]pyridin-3-yl)methyl)acrylamide], for which the IC50 on TEAD1 came to 3.3 nM; at TEAD2, 28 nM; on TEAD4, 5 nM; at TEAD3, 87 nM.

For the compound `O=C(/C=C/Cl)N1CC(c2nn(-c3ccc(OC(F)(F)F)cc3)c3nccc(CO)c23)C1` [Compound 102, (E)-3-Chloro-1-(3-(4-(hydroxymethyl)-1-(4-(trifluoromethoxy)phenyl)-1H-pyrazolo[3,4-b]pyridin-3-yl)azetidin-1-yl)prop-2-en-1-one], the 50% inhibitory concentration (IC50) on TEAD1 came to 10 nM; against TEAD2, 3.5 nM; at TEAD4, 3.3 nM; at TEAD3 it was 8.8 nM.

For the compound `O=C(/C=C/CO)N1CC(c2nn(-c3ccc(OC(F)(F)F)cc3)c3ccnc(N4CC(O)C4)c23)C1` [Compound 103, (E)-4-hydroxy-1-(3-(4-(3-hydroxyazetidin-1-yl)-1-(4-(trifluoromethoxy)phenyl)-1H-pyrazolo[4,3-c]pyridin-3-yl)azetidin-1-yl)but-2-en-1-one], the IC50 on TEAD1 turned out to be 180 nM; against TEAD2 it was 3350 nM; on TEAD4, 82.5 nM; at TEAD3, 50000 nM.

With `C=CC(=O)NCc1nn(-c2ccc(OC(F)(F)F)cc2)c2nccc(CN(C)C)c12` [Compound 105, N-((4-((dimethylamino)methyl)-1-(4-(trifluoromethoxy)phenyl)-1H-pyrazolo[3,4-b]pyridin-3-yl)methyl)acrylamide], the IC50 at TEAD1 came out at 1000 nM; at TEAD2 it was 620 nM; at TEAD4, 450 nM; on TEAD3 it was 50000 nM.

With `C=CC(=O)NCc1nn(-c2ccc(OC(F)(F)F)cc2)c2nccc(N3CC(O)C3)c12` [Compound 106, N-((4-(3-hydroxyazetidin-1-yl)-1-(4-(trifluoromethoxy)phenyl)-1H-pyrazolo[3,4-b]pyridin-3-yl)methyl)acrylamide], the 50% inhibitory concentration (IC50) on TEAD1 was found to be 15.5 nM; on TEAD2, 61 nM; on TEAD4 it was 6.75 nM; on TEAD3 it was 935 nM.

As for `C=CC(=O)NCc1nn(-c2ccc(OC(F)(F)F)cc2)c2nccc(N3CC(N(C)C)C3)c12` [Compound 107, N-((4-(3-(dimethylamino)azetidin-1-yl)-1-(4-(trifluoromethoxy)phenyl)-1H-pyrazolo[3,4-b]pyridin-3-yl)methyl)acrylamide], the half-maximal inhibitory concentration (IC50) worked out at 280 nM on TEAD1, 960 nM on TEAD2, 36 nM on TEAD4 and 50000 nM on TEAD3.

As for `C=C(Cl)C(=O)N1CC(c2nn(-c3ccc(OC(F)(F)F)cc3)c3nccc([C@H](O)CO)c23)C1` [Compound 109, (S)-2-Chloro-1-(3-(4-(1,2-dihydroxyethyl)-1-(4-(trifluoromethoxy)phenyl)-1H-pyrazolo[3,4-b]pyridin-3-yl)azetidin-1-yl)prop-2-en-1-one], the IC50 stood at 23 nM on TEAD1, 7.8 nM at TEAD2, 5.15 nM on TEAD4 and 18 nM at TEAD3.

These data come from patent publication US12110276B2 (Genentech, Inc., priority 2021, dated 2024).
